# Measurements: patent publication US20100086931A1, “METHOD FOR ASSAYING ACTION OF ANTITUMOR AGENT USING DECREASE IN GENE EXPRESSION LEVEL AS INDEX” (Eisai R&D Management Co., Ltd., priority 2007, published 2010)
# Test system: peripheral blood mononuclear cells (PBMC)
# Test: qPCR (TaqMan) measurement of mRNA expression in PBMC treated with compound A
# Type: cell-based, human
# Details: untreated cells = 1, corrected by 18S rRNA
# Text: Since it is not easy to obtain a cancer tissue clinically, the measurement of the marker in hemocytes readily obtainable in peripheral blood would be more useful. Specifically peripheral blood was taken from three normal individuals (volunteers) and peripheral blood mononuclear cells were purified and treated with compound A, followed by measurement of change in expression of the gene (mRNA) by qPCR.
# RNA samples were first prepared in accordance with the steps described in Example 2 (1) and (2).
# Subsequently RNA was prepared to 30 ng/μl and cDNA was synthesized by using TaqMan Reverse Transcription Reagents (Applied Biosystems). The expression level of SLC25A19, TRAPPC4, GTF2H1, Id1, EDN1, ZCCHC6, HNRPA2B1, and HSPA9B was amplified with TaqMan Gene Expression Assays (catalog numbers below) (Applied Biosystems) as a probe by using TaqMan Universal PCR Master Mix (Applied Biosystems).
# Reagents were prepared in accordance with the protocol, and measurement was carried out with ABI7900 (Applied Biosystems). Measured values were corrected by using the expression level of 18S rRNA (Hs99999901_s1, Applied Biosystems) as an internal control. The expression level of each gene was calculated with the expression level in the cells untreated with compound A as 1. […] In Table 3, for each gene evaluated, abbreviated name (Gene Symbol), accession number (Accession), alias name (Synonym), gene name (Gene Name), and the expression level upon treatment with varied concentration of E7107 (E7107 (nM)) were respectively shown.
structure (smiles),measurement,setting,value
"CCC(O)C(C)C1OC1CC(C)(O)/C=C/C=C(\C)C1OC(=O)CC(O)CCC(C)(O)C(OC(=O)N2CCN(C3CCCCCC3)CC2)/C=C/C1C (centres unmarked) [E7107, (8E,12E,14E)-7-((4-Cycloheptylpiperazin-1-yl)carbonyl)oxy-3,6,16,21-tetrahydroxy-6,10,12,16,20-pentamethyl-18,19-epoxytricosa-8,12,14-trien-11-olide]",EDN1 mRNA expression level (qPCR),3 nM,0.45
same,GTF2H1 mRNA expression level (qPCR),3 nM,0.22
same,HNRPA2B1 mRNA expression level (qPCR),3 nM,0.48
same,HSPA9 mRNA expression level (qPCR),3 nM,0.39
same,ID1 mRNA expression level (qPCR),3 nM,0.5
same,SLC25A19 mRNA expression level (qPCR),3 nM,0.11
same,TRAPPC4 mRNA expression level (qPCR),3 nM,0.12
same,ZCCHC8 mRNA expression level (qPCR),3 nM,0.49
same,EDN1 mRNA expression level (qPCR),10 nM,0.2
same,GTF2H1 mRNA expression level (qPCR),10 nM,0.07
same,HNRPA2B1 mRNA expression level (qPCR),10 nM,0.29
same,HSPA9 mRNA expression level (qPCR),10 nM,0.26
same,ID1 mRNA expression level (qPCR),10 nM,0.15
same,SLC25A19 mRNA expression level (qPCR),10 nM,0.02
same,TRAPPC4 mRNA expression level (qPCR),10 nM,0.02
same,ZCCHC8 mRNA expression level (qPCR),10 nM,0.19
same,EDN1 mRNA expression level (qPCR),30 nM,0.11
same,GTF2H1 mRNA expression level (qPCR),30 nM,0.05
same,HNRPA2B1 mRNA expression level (qPCR),30 nM,0.24
same,HSPA9 mRNA expression level (qPCR),30 nM,0.17
same,ID1 mRNA expression level (qPCR),30 nM,0.09
same,SLC25A19 mRNA expression level (qPCR),30 nM,0.01
same,TRAPPC4 mRNA expression level (qPCR),30 nM,0.01
